From PubChem BioAssay (NCI)
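Method: 48-hour compound exposure of cells in 96-well plates, five concentrations, linear interpolation of endpoints. GI50: concentration for 50% inhibition of growth. TGI: total growth inhibition.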

Columns and labels:
Experiment in all cases: NCI-60 cell line screen, 48 h
SK-MEL-5 melanoma = test system: SK-MEL-5 melanoma
UO-31 renal = test system: UO-31 renal
SNB-19 CNS = test system: SNB-19 CNS
SN12C renal = test system: SN12C renal
T-47D breast = test system: T-47D breast
COLO 205 colon = test system: COLO 205 colon
SR leukemia = test system: SR leukemia
HL-60(TB) leukemia = test system: HL-60(TB) leukemia
NCI-H226 lung = test system: NCI-H226 lung
OVCAR-5 ovarian = test system: OVCAR-5 ovarian
A549 NSCLC = test system: A549 NSCLC
HCC-2998 colon = test system: HCC-2998 colon
SF-295 CNS = test system: SF-295 CNS
OVCAR-3 ovarian = test system: OVCAR-3 ovarian
SK-MEL-2 melanoma = test system: SK-MEL-2 melanoma
NCI-H522 lung = test system: NCI-H522 lung
ACHN renal = test system: ACHN renal
SNB-75 CNS = test system: SNB-75 CNS
SW-620 colon = test system: SW-620 colon
MCF7 breast = test system: MCF7 breast
SF-268 CNS = test system: SF-268 CNS
HS 578T breast = test system: HS 578T breast
MDA-MB-231 breast = test system: MDA-MB-231 breast
MDA-MB-435 = test system: MDA-MB-435
K-562 leukemia = test system: K-562 leukemia
NCI-H460 lung = test system: NCI-H460 lung
NCI/ADR-RES ovarian = test system: NCI/ADR-RES ovarian
786-0 renal = test system: 786-0 renal
HOP-92 NSCLC = test system: HOP-92 NSCLC
NCI-H23 lung = test system: NCI-H23 lung
LOX IMVI melanoma = test system: LOX IMVI melanoma
KM12 colon = test system: KM12 colon
UACC-62 melanoma = test system: UACC-62 melanoma
HT29 colon = test system: HT29 colon
A498 renal = test system: A498 renal
RPMI-8226 leukemia = test system: RPMI-8226 leukemia
HCT-15 colon = test system: HCT-15 colon
U251 CNS = test system: U251 CNS
HCT-116 colon = test system: HCT-116 colon
MOLT-4 leukemia = test system: MOLT-4 leukemia
OVCAR-4 ovarian = test system: OVCAR-4 ovarian
UACC-257 melanoma = test system: UACC-257 melanoma
M14 melanoma = test system: M14 melanoma
CCRF-CEM leukemia = test system: CCRF-CEM leukemia
BT-549 breast = test system: BT-549 breast
MALME-3M melanoma = test system: MALME-3M melanoma
IGROV1 ovarian = test system: IGROV1 ovarian
CAKI-1 renal = test system: CAKI-1 renal
SK-MEL-28 melanoma = test system: SK-MEL-28 melanoma
OVCAR-8 ovarian = test system: OVCAR-8 ovarian
DU-145 prostate = test system: DU-145 prostate
SK-OV-3 ovarian = test system: SK-OV-3 ovarian
EKVX NSCLC = test system: EKVX NSCLC
HOP-62 NSCLC = test system: HOP-62 NSCLC
SF-539 CNS = test system: SF-539 CNS
RXF 393 renal = test system: RXF 393 renal
PC-3 prostate = test system: PC-3 prostate

Structure (SMILES): CCN(Cc1cccc(OC)c1)c1ccc(CO)c(Cl)c1
- GI50 (SK-MEL-5 melanoma): 10.2 µM
- TGI (SK-MEL-5 melanoma): 22.7 µM
- GI50 (UO-31 renal): 8.4 µM
- TGI (UO-31 renal): 45.1 µM
- GI50 (SNB-19 CNS): 24 µM
- TGI (SNB-19 CNS): > 100 µM
- GI50 (SN12C renal): 12.9 µM
- TGI (SN12C renal): 32.1 µM
- GI50 (T-47D breast): 0.165 µM
- TGI (T-47D breast): 1.83 µM
- GI50 (COLO 205 colon): 1.02 µM
- TGI (COLO 205 colon): 4.35 µM
- GI50 (SR leukemia): 22.9 µM
- TGI (SR leukemia): 66.4 µM
- GI50 (HL-60(TB) leukemia): 14.6 µM
- TGI (HL-60(TB) leukemia): 51.7 µM
- GI50 (NCI-H226 lung): 0.0957 µM
- TGI (NCI-H226 lung): 0.231 µM
- GI50 (OVCAR-5 ovarian): 0.157 µM
- TGI (OVCAR-5 ovarian): 0.606 µM
- GI50 (A549 NSCLC): 2.06 µM
- TGI (A549 NSCLC): 27.7 µM
- GI50 (HCC-2998 colon): 12.5 µM
- TGI (HCC-2998 colon): 33.8 µM
- GI50 (SF-295 CNS): 0.889 µM
- TGI (SF-295 CNS): 22 µM
- GI50 (OVCAR-3 ovarian): 0.477 µM
- TGI (OVCAR-3 ovarian): 4.34 µM
- GI50 (SK-MEL-2 melanoma): 2.81 µM
- TGI (SK-MEL-2 melanoma): 21.3 µM
- GI50 (NCI-H522 lung): 9.51 µM
- TGI (NCI-H522 lung): 32.6 µM
- GI50 (ACHN renal): 26.5 µM
- TGI (ACHN renal): 96.8 µM
- GI50 (SNB-75 CNS): 16.3 µM
- TGI (SNB-75 CNS): 62 µM
- GI50 (SW-620 colon): 0.763 µM
- TGI (SW-620 colon): > 100 µM
- GI50 (MCF7 breast): 0.196 µM
- TGI (MCF7 breast): 14.5 µM
- GI50 (SF-268 CNS): 22.5 µM
- TGI (SF-268 CNS): 71.6 µM
- GI50 (HS 578T breast): 18.3 µM
- TGI (HS 578T breast): 61.9 µM
- GI50 (MDA-MB-231 breast): 14.9 µM
- TGI (MDA-MB-231 breast): 44 µM
- GI50 (MDA-MB-435): 16.6 µM
- TGI (MDA-MB-435): 35.6 µM
- GI50 (K-562 leukemia): 1.92 µM
- TGI (K-562 leukemia): > 86.5 µM
- GI50 (NCI-H460 lung): 0.272 µM
- TGI (NCI-H460 lung): 14.1 µM
- GI50 (NCI/ADR-RES ovarian): 13.7 µM
- TGI (NCI/ADR-RES ovarian): 43.4 µM
- GI50 (786-0 renal): 12.4 µM
- TGI (786-0 renal): 38.5 µM
- GI50 (HOP-92 NSCLC): 2.11 µM
- TGI (HOP-92 NSCLC): 20.5 µM
- GI50 (NCI-H23 lung): 13.6 µM
- TGI (NCI-H23 lung): 51 µM
- GI50 (LOX IMVI melanoma): 14.5 µM
- TGI (LOX IMVI melanoma): 27.9 µM
- GI50 (KM12 colon): 17.1 µM
- TGI (KM12 colon): 40.5 µM
- GI50 (UACC-62 melanoma): 0.0839 µM
- TGI (UACC-62 melanoma): 0.48 µM
- GI50 (HT29 colon): 2.13 µM
- TGI (HT29 colon): 17.3 µM
- GI50 (A498 renal): 0.0598 µM
- TGI (A498 renal): 0.191 µM
- GI50 (RPMI-8226 leukemia): 6.44 µM
- TGI (RPMI-8226 leukemia): 47.9 µM
- GI50 (HCT-15 colon): 14.8 µM
- TGI (HCT-15 colon): 66.6 µM
- GI50 (U251 CNS): 0.88 µM
- TGI (U251 CNS): 19.9 µM
- GI50 (HCT-116 colon): 0.0731 µM
- TGI (HCT-116 colon): 11.2 µM
- GI50 (MOLT-4 leukemia): 21.2 µM
- TGI (MOLT-4 leukemia): > 71.9 µM
- GI50 (OVCAR-4 ovarian): 0.291 µM
- TGI (OVCAR-4 ovarian): 14.3 µM
- GI50 (UACC-257 melanoma): 0.121 µM
- TGI (UACC-257 melanoma): 0.295 µM
- GI50 (M14 melanoma): 16.2 µM
- TGI (M14 melanoma): 41 µM
- GI50 (CCRF-CEM leukemia): 24.8 µM
- TGI (CCRF-CEM leukemia): > 82.6 µM
- GI50 (BT-549 breast): 13.9 µM
- TGI (BT-549 breast): 28.9 µM
- GI50 (MALME-3M melanoma): 17.5 µM
- TGI (MALME-3M melanoma): 40.9 µM
- GI50 (IGROV1 ovarian): 0.078 µM
- TGI (IGROV1 ovarian): 0.833 µM
- GI50 (CAKI-1 renal): 0.901 µM
- TGI (CAKI-1 renal): 35.3 µM
- GI50 (SK-MEL-28 melanoma): 14.7 µM
- TGI (SK-MEL-28 melanoma): 35.8 µM
- GI50 (OVCAR-8 ovarian): 12.6 µM
- TGI (OVCAR-8 ovarian): 45.7 µM
- GI50 (DU-145 prostate): 21.1 µM
- TGI (DU-145 prostate): 67.5 µM
- GI50 (SK-OV-3 ovarian): 8.52 µM
- TGI (SK-OV-3 ovarian): 33.6 µM
- GI50 (EKVX NSCLC): 19.9 µM
- TGI (EKVX NSCLC): 71.3 µM
- GI50 (HOP-62 NSCLC): 3.23 µM
- TGI (HOP-62 NSCLC): 39.2 µM
- GI50 (SF-539 CNS): 19 µM
- TGI (SF-539 CNS): 40.5 µM
- GI50 (RXF 393 renal): 11.9 µM
- TGI (RXF 393 renal): 28.8 µM
- GI50 (PC-3 prostate): 19.8 µM
- TGI (PC-3 prostate): 74.3 µM
